Test results reported in ChEMBL document CHEMBL4041506, “Urea-containing peptide boronic acids as potent proteasome inhibitors” (Eur J Med Chem, 2017).

Assays:
[1] = Plasma concentration in Sprague-Dawley rat at 3 mg/kg, iv administered as bolus measured at 0.0330 hrs by LC/MS/MS analysis; type: ADME, organism-based
BEL-7404 tumor cell line [2] = test: Antitumor activity against human Bel7404 cells xenografted in BALB/c nude mouse assessed as effect on tumor volume at 1 mg/kg, iv administered once in two days for 24 consecutive days measured on day 24 of compound dosing relative to control; type: functional
Mus musculus [3] = test: Toxicity in human Bel7404 cells xenografted BALB/c mouse assessed as effect on body weight at 0.5 mg/kg, iv administered once in two days for 24 consecutive days measured on day 13 of compound dosing (reference value: 26.10 +/- 1.08 g); type: organism-based; conditions: in vivo
Mus musculus [4] = test: Toxicity in human Bel7404 cells xenografted BALB/c mouse assessed as effect on body weight at 1 mg/kg, iv administered once in two days for 24 consecutive days measured on day 6 of compound dosing (reference value: 25.65 +/- 0.70 g); type: organism-based; conditions: in vivo
Mus musculus [5] = test: Toxicity in human Bel7404 cells xenografted BALB/c mouse assessed as effect on body weight at 1 mg/kg, iv administered once in two days for 24 consecutive days measured on day 3 of compound dosing (reference value: 25.39 +/- 1 g); type: organism-based; conditions: in vivo
[6] = Plasma concentration in Sprague-Dawley rat at 3 mg/kg, iv administered as bolus measured at 2 hrs by LC/MS/MS analysis; type: ADME, organism-based
Mus musculus [7] = test: Toxicity in human Bel7404 cells xenografted BALB/c mouse assessed as effect on body weight at 0.5 mg/kg, iv administered once in two days for 24 consecutive days measured on day 24 of compound dosing (reference value: 26.29 +/- 1.36 g); type: organism-based; conditions: in vivo
BEL-7404 tumor cell line [8] = test: Antitumor activity against human Bel7404 cells xenografted in BALB/c nude mouse assessed as effect on tumor volume at 2 mg/kg, iv administered once in two days for 24 consecutive days measured on day 13 of compound dosing relative to control; type: functional
BEL-7404 tumor cell line [9] = test: Antitumor activity against human Bel7404 cells xenografted in BALB/c nude mouse assessed as effect on tumor volume at 1 mg/kg, iv administered once in two days for 24 consecutive days measured on day 1 of compound dosing relative to control; type: functional
BEL-7404 tumor cell line [10] = test: Antitumor activity against human Bel7404 cells xenografted in BALB/c nude mouse assessed as effect on tumor volume at 2 mg/kg, iv administered once in two days for 24 consecutive days measured on day 3 of compound dosing relative to control; type: functional

SMILES: CC(C)C[C@H](NC(=O)[C@H](Cc1ccccc1)NC(=O)N1CCc2ccccc2C1)B(O)O
- concentration at 0.033 h [1]: 2610 ng/mL
- fold change (FC) (BEL-7404 tumor cell line [2]): 4.73
- Activity (Mus musculus [3]): 24.92 g
- Activity (Mus musculus [4]): 25.07 g
- Activity (Mus musculus [5]): 25.12 g
- concentration at 2 h [6]: 55.1 ng/mL
- Activity (Mus musculus [7]): 25.15 g
- fold change (FC) (BEL-7404 tumor cell line [8]): 2.64
- fold change (FC) (BEL-7404 tumor cell line [9]): 1
- fold change (FC) (BEL-7404 tumor cell line [10]): 1.31
